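The compound was tested at five concentrations on cells cultured in 96-well plates, with a 48-hour exposure period. GI50 is the concentration that inhibits growth by half.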 Activity calls are given as the source filed them. Rule as the data show it: active = GI50 up to about 1.1 µM and inactive = higher.
Experiments:
Assay in all cases: NCI tumour cell line growth inhibition, 48 h
SR = tested on: SR
KM12 = tested on: KM12
PC-3 = tested on: PC-3
MDA-N = tested on: MDA-N
HCT-15 = tested on: HCT-15
BT-549 = tested on: BT-549
CAKI-1 = tested on: CAKI-1
MDA-MB-435 = tested on: MDA-MB-435
T47D = tested on: T47D
U-251 = tested on: U-251
UACC-62 = tested on: UACC-62
OVCAR-3 = tested on: OVCAR-3
EKVX = tested on: EKVX
SF-539 = tested on: SF-539
UO-31 = tested on: UO-31
MOLT-4 = tested on: MOLT-4
HCC 2998 = tested on: HCC 2998
SK-OV-3 = tested on: SK-OV-3
OVCAR-8 = tested on: OVCAR-8
HT-29 = tested on: HT-29
Hs-578T = tested on: Hs-578T
OVCAR-5 = tested on: OVCAR-5
SNB-19 = tested on: SNB-19
A549 = tested on: A549
SF-295 = tested on: SF-295
HCT-116 = tested on: HCT-116
COLO 205 = tested on: COLO 205
SK-MEL-28 = tested on: SK-MEL-28
Malme-3M = tested on: Malme-3M
HL-60 = tested on: HL-60
HOP-62 = tested on: HOP-62
MCF7 = tested on: MCF7
ACHN = tested on: ACHN
IGROV-1 = tested on: IGROV-1
786-0 = tested on: 786-0
DU-145 = tested on: DU-145
M14 = tested on: M14
LOX IMVI = tested on: LOX IMVI
SF-268 = tested on: SF-268
OVCAR-4 = tested on: OVCAR-4
NCI-H522 = tested on: NCI-H522
RPMI-8226 = tested on: RPMI-8226
NCI/ADR-RES = tested on: NCI/ADR-RES
NCI-H460 = tested on: NCI-H460
SK-MEL-2 = tested on: SK-MEL-2
K562 = tested on: K562
SK-MEL-5 = tested on: SK-MEL-5
A498 = tested on: A498
CCRF-CEM = tested on: CCRF-CEM
NCI-H23 = tested on: NCI-H23
UACC-257 = tested on: UACC-257
SW-620 = tested on: SW-620
TK-10 = tested on: TK-10
MDA-MB-231 = tested on: MDA-MB-231
SNB-75 = tested on: SNB-75
NCI-H226 = tested on: NCI-H226
SN12C = tested on: SN12C
HOP-92 = tested on: HOP-92
RXF 393 = tested on: RXF 393

With `O=c1c(/C=C/c2c(O)ccc3ccccc23)nnc2sc(-c3cccc(Br)c3)nn12` the GI50 (SR) was 4.72 µM (inactive), the GI50 (KM12) was 20.7 µM (inactive) and the GI50 (PC-3) was 22.4 µM (inactive). For the same molecule, the GI50 (MDA-N) was 28.3 µM (inactive), the GI50 (HCT-15) was 6.78 µM and the GI50 (BT-549) was 11.6 µM (inactive). The GI50 (CAKI-1) was 15.3 µM (inactive), the GI50 (MDA-MB-435) was 21.1 µM (inactive) and the GI50 (T47D) was 15 µM (inactive). The GI50 (U-251) was 25.2 µM (inactive), the GI50 (UACC-62) was 20.7 µM (inactive) and the GI50 (OVCAR-3) was 3.89 µM (inactive). For the same molecule, the GI50 (EKVX) was 16.7 µM (inactive), the GI50 (SF-539) was 63.8 µM (inactive) and the GI50 (UO-31) was 13.4 µM (inactive). The GI50 (MOLT-4) was 3.4 µM (inactive), the GI50 (HCC 2998) was 20.1 µM (inactive) and the GI50 (SK-OV-3) was 30.1 µM (inactive). The GI50 (OVCAR-8) was 3.44 µM (inactive), the GI50 (HT-29) was 29.9 µM (inactive) and the GI50 (Hs-578T) was 35.9 µM (inactive). For the same molecule, the GI50 (OVCAR-5) was 19.5 µM (inactive), the GI50 (SNB-19) was 39 µM (inactive) and the GI50 (A549) was 32.1 µM (inactive). The GI50 (SF-295) was 32.7 µM (inactive), the GI50 (HCT-116) was 22.5 µM (inactive) and the GI50 (COLO 205) was 39.2 µM (inactive). The GI50 (SK-MEL-28) was 20.8 µM (inactive), the GI50 (Malme-3M) was 23 µM (inactive) and the GI50 (HL-60) was 3.94 µM (inactive). The GI50 (HOP-62) was 24.8 µM (inactive), the GI50 (MCF7) was 13.6 µM (inactive) and the GI50 (ACHN) was 16.1 µM (inactive). The GI50 (IGROV-1) was 0.773 µM (active), the GI50 (786-0) was 26.6 µM (inactive) and the GI50 (DU-145) was 16.1 µM (inactive). The GI50 (M14) was 15.8 µM (inactive), the GI50 (LOX IMVI) was 4.88 µM (inactive) and the GI50 (SF-268) was 4.51 µM (inactive). For the same molecule, the GI50 (OVCAR-4) was 4.8 µM (inactive), the GI50 (NCI-H522) was 15.5 µM (inactive) and the GI50 (RPMI-8226) was 10.3 µM (inactive). For the same molecule, the GI50 (NCI/ADR-RES) was 22.8 µM (inactive), the GI50 (NCI-H460) was 25.4 µM (inactive) and the GI50 (SK-MEL-2) was 23.6 µM (inactive). The GI50 (K562) was 19.9 µM (inactive), the GI50 (SK-MEL-5) was 17.8 µM (inactive) and the GI50 (A498) was 26.7 µM (inactive). For the same molecule, the GI50 (CCRF-CEM) was 3.82 µM (inactive), the GI50 (NCI-H23) was 14.7 µM (inactive) and the GI50 (UACC-257) was 23.7 µM (inactive). The GI50 (SW-620) was 25.6 µM (inactive).

`C=C1[C@@](C)([C@@H]2CCCS2)[C@H]2C(C)=C[C@]1(C)n1c(=O)n(-c3ccccc3)c(=O)n12` was tested, and the GI50 (KM12) was > 100 µM (inactive), the GI50 (PC-3) was > 100 µM (inactive) and the GI50 (MDA-N) was > 100 µM (inactive). For the same molecule, the GI50 (HCT-15) was > 100 µM, the GI50 (BT-549) was > 100 µM (inactive) and the GI50 (CAKI-1) was > 100 µM (inactive). The GI50 (MDA-MB-435) was > 100 µM (inactive), the GI50 (T47D) was > 100 µM (inactive) and the GI50 (U-251) was > 100 µM (inactive). The GI50 (UACC-62) was > 100 µM (inactive), the GI50 (OVCAR-3) was > 100 µM (inactive) and the GI50 (EKVX) was > 100 µM (inactive). The GI50 (SF-539) was > 100 µM (inactive), the GI50 (UO-31) was > 100 µM (inactive) and the GI50 (MOLT-4) was > 100 µM (inactive). For the same molecule, the GI50 (HCC 2998) was > 100 µM (inactive), the GI50 (SK-OV-3) was > 100 µM (inactive) and the GI50 (HT-29) was > 100 µM (inactive). For the same molecule, the GI50 (Hs-578T) was > 100 µM (inactive), the GI50 (OVCAR-5) was > 100 µM (inactive) and the GI50 (SNB-19) was > 100 µM (inactive). For the same molecule, the GI50 (TK-10) was > 100 µM (inactive), the GI50 (A549) was > 100 µM (inactive) and the GI50 (SF-295) was > 100 µM (inactive). The GI50 (HCT-116) was > 100 µM (inactive), the GI50 (COLO 205) was > 100 µM (inactive) and the GI50 (SK-MEL-28) was > 100 µM (inactive). For the same molecule, the GI50 (Malme-3M) was > 100 µM (inactive), the GI50 (HL-60) was > 100 µM (inactive) and the GI50 (HOP-62) was > 100 µM (inactive). For the same molecule, the GI50 (MCF7) was > 100 µM (inactive), the GI50 (ACHN) was > 100 µM (inactive) and the GI50 (MDA-MB-231) was > 100 µM (inactive). The GI50 (IGROV-1) was 56.2 µM (inactive), the GI50 (786-0) was > 100 µM (inactive) and the GI50 (DU-145) was > 100 µM (inactive). The GI50 (SNB-75) was 46.5 µM (inactive), the GI50 (M14) was > 100 µM (inactive) and the GI50 (SF-268) was > 100 µM (inactive). The GI50 (OVCAR-4) was > 100 µM (inactive), the GI50 (NCI-H226) was > 100 µM (inactive) and the GI50 (NCI-H522) was > 100 µM (inactive). For the same molecule, the GI50 (RPMI-8226) was > 100 µM (inactive), the GI50 (NCI/ADR-RES) was > 100 µM (inactive) and the GI50 (NCI-H460) was > 100 µM (inactive). The GI50 (SK-MEL-2) was > 100 µM (inactive), the GI50 (SN12C) was > 100 µM (inactive) and the GI50 (SK-MEL-5) was > 100 µM (inactive). The GI50 (A498) was > 100 µM (inactive), the GI50 (CCRF-CEM) was > 100 µM (inactive) and the GI50 (NCI-H23) was > 100 µM (inactive). The GI50 (UACC-257) was > 100 µM (inactive) and the GI50 (SW-620) was > 100 µM (inactive).

In the case of `Cc1sc2nc(-c3cccc([N+](=O)[O-])c3)c(/C=N/N=C(N)N)n2c1C`, the GI50 (SR) was 1.75 µM (inactive), the GI50 (KM12) was 1.71 µM (inactive) and the GI50 (PC-3) was 1.63 µM (inactive). For the same molecule, the GI50 (MDA-N) was 1.77 µM (inactive), the GI50 (HCT-15) was 1.67 µM and the GI50 (BT-549) was 1.5 µM (inactive). The GI50 (CAKI-1) was 1.82 µM (inactive), the GI50 (MDA-MB-435) was 1.79 µM (inactive) and the GI50 (U-251) was 1.7 µM (inactive). The GI50 (UACC-62) was 1.75 µM (inactive), the GI50 (OVCAR-3) was 1.82 µM (inactive) and the GI50 (EKVX) was 1.67 µM (inactive). For the same molecule, the GI50 (SF-539) was 1.95 µM (inactive), the GI50 (UO-31) was 1.75 µM (inactive) and the GI50 (HOP-92) was 1.46 µM (inactive). The GI50 (MOLT-4) was 1.9 µM (inactive), the GI50 (HCC 2998) was 1.32 µM (inactive) and the GI50 (SK-OV-3) was 1.8 µM (inactive). The GI50 (OVCAR-8) was 1.84 µM (inactive), the GI50 (RXF 393) was 1.66 µM (inactive) and the GI50 (HT-29) was 1.62 µM (inactive). The GI50 (Hs-578T) was 1.66 µM (inactive), the GI50 (OVCAR-5) was 1.65 µM (inactive) and the GI50 (SNB-19) was 1.76 µM (inactive). For the same molecule, the GI50 (TK-10) was 1.51 µM (inactive), the GI50 (A549) was 1.66 µM (inactive) and the GI50 (SF-295) was 1.54 µM (inactive). For the same molecule, the GI50 (COLO 205) was 1.83 µM (inactive), the GI50 (SK-MEL-28) was 1.67 µM (inactive) and the GI50 (Malme-3M) was 2.08 µM (inactive). For the same molecule, the GI50 (HL-60) was 1.81 µM (inactive), the GI50 (HOP-62) was 1.72 µM (inactive) and the GI50 (MCF7) was 1.84 µM (inactive). For the same molecule, the GI50 (ACHN) was 1.71 µM (inactive), the GI50 (MDA-MB-231) was 1.75 µM (inactive) and the GI50 (IGROV-1) was 1.32 µM (inactive). The GI50 (786-0) was 1.83 µM (inactive), the GI50 (DU-145) was 1.86 µM (inactive) and the GI50 (M14) was 1.6 µM (inactive). The GI50 (LOX IMVI) was 1.77 µM (inactive), the GI50 (SF-268) was 1.93 µM (inactive) and the GI50 (NCI-H226) was 1.82 µM (inactive). The GI50 (NCI-H522) was 1.77 µM (inactive), the GI50 (RPMI-8226) was 1.96 µM (inactive) and the GI50 (NCI/ADR-RES) was 8.13 µM (inactive). The GI50 (NCI-H460) was 1.81 µM (inactive), the GI50 (SK-MEL-2) was 1.71 µM (inactive) and the GI50 (K562) was 1.69 µM (inactive). The GI50 (SN12C) was 1.92 µM (inactive), the GI50 (SK-MEL-5) was 1.67 µM (inactive) and the GI50 (A498) was 1.55 µM (inactive). For the same molecule, the GI50 (CCRF-CEM) was 1.74 µM (inactive), the GI50 (NCI-H23) was 1.82 µM (inactive) and the GI50 (UACC-257) was 1.67 µM (inactive). For the same molecule, the GI50 (SW-620) was 1.75 µM (inactive).
